Read-outs that look alike come from different tables or passages of the source.
Columns and labels:
zebrafish larvae [1] = assay: Toxicity in zebrafish larvae (viability, MTD, morphology); assay type: in vivo; settings: for Melanocyte abnormalities: wild-type AB-strain zebrafish larvae
Protocol: Phenazine 5,10-dioxides were dissolved in DMSO to give final concentrations between 5 and 20 mM and administered to the zebrafish larvae by diluting the stock solutions in the embryo medium. All compounds were tested up to a maximal concentration of 100 µM. […]
(§1) Zebrafish larvae heart rate was analysed as described by Førde et al.. To examine zebrafish larvae for morphological abnormalities, they were imaged using a Nikon Diaphot 300 inverted microscope fitted with a Nikon DS-Fi3 microscope camera and DS-L4 camera control unit.

AML cell lines = assay: Preliminary combination of Cpd 1 with AML drugs; assay type: cell-based, human; settings: in combination with DNR, cytarabine and etoposide, data not shown
MOLM-13 [2] = tested on: MOLM-13; parameters: method as in PMID 34124675; settings: ref [6]; cited from earlier work
MOLM-13 [3] = assay: WST-1 metabolic activity and Bliss synergy with VTX, MOLM-13; assay type: cell-based, human; settings: for Mean Bliss interaction index (synergy score): Cpd 1 + VTX, all tested combinations
Protocol: (§2) To study the combination effect of phenazine 5,10-dioxides and VTX in AML cell lines, the cells were seeded in 96-well plates at 35,000 cells per well for 24-hour experiments or 20,000 cells per well for 48-hour experiments. Phenazine 5,10-dioxides and VTX, alone or in combination, were added in desired concentrations and cell plates incubated for 24 and 48 h. Thereafter, WST-1 was added to each well according to the manufacturer’s instructions and incubated for two hours. Absorbance was measured at 450 nm with 620 nm reference wavelength in a Wallac EnVision® 2130 multilabel plate reader, and this value was used to calculate relative metabolic activity compared to untreated cells. The cells were next fixed in 2 % formaldehyde with 0.01 mg/ml Hoechst 33,342 dye dissolved in PBS. Nuclear morphology was studied using a Nikon Diaphot 300 microscope to confirm that metabolic activity correlated with the presence of apoptotic nuclei (Supplementary Figure 1).
(§3) To calculate drug interaction, cell metabolic activity results were plotted into the interaction calculation software SynergyFinder+ [31], and Bliss independence score was used to calculate synergy.

AML patient blasts = assay: Cell death of patient-derived AML blasts, Annexin V/propidium iodide flow cytometry, 24 h; assay type: cell-based, human; settings: compared with Cpd 3, 6, 9
Text: Blasts from 61 non-selected patients were used in this study. Supplementary Table 1 presents the patient information, classification, and genetic aberration of the blasts. Peripheral blood mononuclear cells (PBMC) from healthy volunteers were obtained from freshly drawn peripheral blood from the Department of Immunology and Transfusion Medicine, Haukeland University Hospital, Bergen, Norway. AML blasts and PBMCs were isolated by density gradient separation of peripheral blood. The patient samples contained at least 95 % leukemic blasts after isolation. Bone marrow (BM) aspirate from a healthy donor was kindly provided by Professor BT Gjertsen, Dept. Clinical Science, University of Bergen (REK Vest 2012/2247). The patient blasts were cultured in StemSpan medium supplemented with SCF, Flt-3 ligand, and G-CSF, each at a final concentration of 20 ng/mL [22, 23], treated with phenazine 5,10-dioxides or daunorubicin (DNR) for 24 h before cell death was assessed by flow-cytometric analyses as described previously. Viable cells were defined as Annexin V/propidium iodide double negative cells.

MOLM-13 [4] = assay: Cytotoxicity towards MOLM-13 cells (EC50); assay type: cell-based, human; settings: no reference mark in Table 3
Protocol: Table 3 Toxicity of phenazine 5,10-dioxides in zebrafish larvae. Maximum tolerated doses and observed morphological alterations in zebrafish larvae caused by phenazine 5,10-dioxides dissolved in embryo medium for 48 h. Cpd: compound. MTD: maximum tolerated dose. a: EC50 values from, –: not observed. | column: MOLM-13 EC50 (µM)

[5] = ref [29]; cited from earlier work
[6] = parameters: method as in PMID 38778732; settings: patients receiving 400 mg VTX as a single dosage; ref [43]; cited from earlier work
OCI-AML3 = assay: WST-1 metabolic activity and Bliss synergy with VTX, OCI-AML3; assay type: cell-based, human; settings: VTX alone; 24 h
Protocol: as §2, §3

zebrafish larvae [7] = assay: Zebrafish larvae heart rate; assay type: in vivo; settings: intravenously injected, 4 nL injection, 100 µM; 24 and 48 h
Protocol: as §1

[8] = tested on: xenograft MOLM-13 cells in zebrafish larvae; assay: Tumour burden of xenograft MOLM-13 cells in zebrafish larvae; assay type: in vivo; settings: VTX 4 nL 50 µM intravenous injection; 24 h; p < 0.001
Protocol: Prior to transplantation into zebrafish larvae, MOLM-13 cells were stained with the fluorescent marker CellTracker™ Deep Red. The cell suspension was centrifuged at 300 relative centrifugal force (RCF) for 5 min, and the medium removed. Thereafter, the cells were resuspended in serum-free RPMI-1640 medium containing 1.5 µM CellTracker™ Deep Red and incubated for 30 min at 37 °C. Excess dye was removed by centrifugation for five minutes at 300 RCF, removal of the medium and the cells were resuspended in fresh RPMI-medium to a final concentration of 10 million cells/mL. Intravenous injection of MOLM-13 cells into zebrafish larvae was performed as described in Førde et al.. The zebrafish larvae xenografts were incubated at 31.5 °C.
For quantification of tumour burden in zebrafish larvae a Nikon Ti-E inverted microscope fitted with an Andor Dragonfly 505 spinning disk confocal unit and iXon 888 Life EMCCD camera setup was used. […] The zebrafish larvae were scored based on the number of cells successfully injected and divided into treatment or control groups. […]
The Fiji macro described in [30] was used to determine MOLM-13 cancer cell burden in zebrafish larvae. […] After defining the boundary of the larva and segmentation from the background, the cells are segmented so that individual cells can be quantified (both size and number). […]

AML patients = tested on: AML patients; parameters: method as in PMID 32786187; settings: ref [14]; cited from earlier work
[9] = dissolved in embryo medium for 48 h
[10] = dissolved in embryo medium for 48 h, concentration from which observed

[O-][n+]1c2cccc(O)c2[n+]([O-])c2cccc(O)c21 [Cpd 1, 1,6-dihydroxyphenazine 5,10-dioxide]
Lethality to zebrafish larvae (zebrafish larvae [1]; 100 µM (highest concentration tested), 48 h): not lethal
Viability of zebrafish larvae (Fig. 2A annotation) (zebrafish larvae [1]; 48 h of exposure, up to 100 µM): Non-toxic
MTD (maximum tolerated dose) (zebrafish larvae [1]; [9]): >100 µM
Melanocyte abnormalities (zebrafish larvae [1]): not observed
Drug interaction (AML cell lines): additive effects
EC50 (MOLM-13 [2]): 2000 ± 100 nM
Mean Bliss interaction index (synergy score) (MOLM-13 [3]; 24 h): 15.56
Mean Bliss interaction index (synergy score) (MOLM-13 [3]; 48 h): 10.90
Potency towards the patient blasts (AML patient blasts): lowest potency

COc1cccc2c1[n+]([O-])c1cccc(O)c1[n+]2[O-] [Cpd 2, Myxin]
Only concentration that did not cause lethality (zebrafish larvae [1]; 48 h exposure): 5 µM
MTD (maximum tolerated dose) (zebrafish larvae [1]; [9]): 5 µM
Pigmentation alterations (zebrafish larvae [1]; [10]): From 10 µM
Concentration killing zebrafish larvae after six hours (zebrafish larvae [1]; in embryo medium, data not shown): 30000 nM
Melanocyte abnormalities (zebrafish larvae [1]): caused melanocyte abnormalities
EC50 (MOLM-13 [2]): 1400 ± 300 nM

COc1cccc2c1[n+]([O-])c1ccccc1[n+]2[O-] [Cpd 10]
MTD (maximum tolerated dose) (zebrafish larvae [1]; [9]): <10 µM
Muscle fibre alterations (zebrafish larvae [1]; [10]): From 10 µM
Pigmentation alterations (zebrafish larvae [1]; [10]): From 10 µM
Melanocyte abnormalities (zebrafish larvae [1]): caused melanocyte abnormalities
EC50 (MOLM-13 [4]): 1400 ± 100 nM

CC1(C)CCC(CN2CCN(c3ccc(C(=O)NS(=O)(=O)c4ccc(NCC5CCOCC5)c([N+](=O)[O-])c4)c(Oc4cnc5[nH]ccc5c4)c3)CC2)=C(c2ccc(Cl)cc2)C1 [VTX, venetoclax]
Permeability [5]: low permeability
Cmax [6]: ~2500 nM
Relative metabolic activity (MOLM-13 [3]; 6 nM VTX alone, 48 h): 59%
Concentration until which no reduction in metabolic activity (OCI-AML3): 6 µM
Sensitivity of OCI-AML3 cells (OCI-AML3): high resistance
Heartrate of zebrafish larvae relative to control (zebrafish larvae [7]): No significant differences
Cancer cell burden relative to control [8]: reduced cancer cell burden

Nc1ncn([C@@H]2O[C@H](CO)[C@@H](O)[C@H]2O)c(=O)n1 [azacitidine]
Median overall survival (AML patients): 9.6 months

Source: paper PMC12741294, “Phenazine 5,10-dioxide analogues as potential therapeutics in AML: Efficacy on patient-derived blasts, in zebrafish larvae xenografts and synergy with venetoclax” (Translational Oncology, 2025)
